According to patent US20240300980A1, “HETEROCYCLIC COMPOUNDS AS KRAS INHIBITOR, AND PREPARATION THEREFOR AND USE THEREOF IN TREATMENT” (SHANGHAI KECHOW PHARMA, INC., priority 2021, published 2024):

These molecules were tested on AGS cells (KRAS^G12D) (assay: Detection of cell proliferation in vitro by MTT/MTS method (cell activity experiment)). Settings: Homo sapiens, AGS, 72 h, AGS cells; MTT/MTS; 3 days of drug treatment; read-out: AGS IC50.
Format: cell-based
How it was run: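 After 3-day compound exposure (final DMSO 0.5%), viability of AGS (KRAS G12D) cells, plated 1000/well one day before dosing, was measured at 490 nm following 4 h MTT or MTS incubation. IC50 was fitted from dose–effect curves relative to DMSO-treated wells.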

IC50 [nM]	Compound
70	CCC1CCCc2cc(O)cc(-c3ccc4c(NCC5(N(C)C)CCC5)nc(OC[C@@]56CCCN5C[C@H](F)C6)nc4c3F)c21 (stereo partly drawn) [Example 428, 4-(4-(((1-(dimethylamino)cyclobutyl)methyl)amino)-8-fluoro-2-(((2R,7aS)-2-fluorotetrahydro-1H-pyrrolizin-7a(5H)-yl)methoxy)quinazolin-7-yl)-5-ethyl-5,6,7,8-tetrahydronaphthalen-2-ol]
75	CCC1CCc2cc(O)cc(-c3ccc4c(NCC5(N(C)C)CCC5)nc(OC[C@@]56CCCN5C[C@H](F)C6)nc4c3F)c21 (stereo partly drawn) [Example 429, 7-(4-(((1-(dimethylamino)cyclobutyl)methyl)amino)-8-fluoro-2-(((2R,7aS)-2-fluorotetrahydro-1H-pyrrolizin-7a(5H)-yl)methoxy)quinazolin-7-yl)-1-ethyl-2,3-dihydro-1H-inden-5-ol]
35	C#Cc1c(F)ccc2cc(O)cc(-c3ccc4c(NCC5(N(C)C)CCC5)nc(OC[C@@]56CCCN5C[C@H](F)C6)nc4c3F)c12 [Example 430, 4-(4-(((1-(dimethylamino)cyclobutyl)methyl)amino)-8-fluoro-2-(((2R,7aS)-2-fluorotetrahydro-1H-pyrrolizin-7a(5H)-yl)methoxy)quinazolin-7-yl)-5-ethynyl-6-fluoronaphthalen-2-ol]
